Converted amounts (≈) assume the structure as drawn. “And” between values parts separate entries of the source, which are not always exact repeats. Equal entries are not always repeated. Where two headings read alike, the source gives them in different places.
How the values were obtained:
[1] = test system: HIV-1 strains containing the 100 Leu→Ile mutation in their RT; conditions: cited from earlier work
HIV-1/101-Glu = assay: inhibition of syncytium formation in CEM cells, HIV-1 RT mutant 101-Glu; assay type: cell-based; conditions: Human immunodeficiency virus 1, CCRF-CEM, 96 h, read-out: EC50 101-Glu
Text: (§1) CEM cells were obtained from the American Tissue Cell Culture Collection (Rockville, Md.) . HIV-1 (IIIB) was originally obtained from the culture supernatant of persistently HIV-1-infected H9 cells and was provided by R. C. Gallo and M. Popovic (National Cancer Institute, National Institutes of Health, Bethesda, Md.).
(§2) The selection and characterization of the HIV-1 RT mutant strains were done as follows: HIV-1/100-Ile ("100-Ile") was selected for resistance against TIBO R82150 as described in Balzarini et al, Virology 192: 246-253 (1993); HIV-1/103-Asn ("103-Asn") was selected for resistance against TIBO R82913 as described in Balzarini et al, Virology 192: 246-253 (1993); HIV-1/106-Ala ("106-Ala") was selected for resistance against nevirapine as described in Balzarini et al, J. Virol. 67: 5353-5359 (1993); HIV-1/Lys-138 ("Lys-138") was selected for resistance against TSAO-m^3T as described in Balzarini et al, Virology 192: 246-253 (1993) and Balzarini et al, Proc. Nat. Acad. Sci. USA 90: 6952-6956 (1993); HIV-1/181-Cys ("181-Cys") was selected for resistance against pyridinone L-697,661 as described in Balzarini et al, Virology 192: 246-253 (1993); and HIV-1/188-His ("188-His") was selected for resistance against HEPT as described in Balzarini et al, Mol. Pharmocol. 44: 694-701 (1993). 188-His was then further converted to HIV-1/188-Leu ("188-Leu") upon further passage in cell culture in the absence of the HEPT. HIV-1/101-Glu ("101-Glu") and HIV-1/190-Glu ("190-Glu") were selected for resistance against the thiocarboxanilide derivative designated as UC38 as described in Balzarini et al, Antiviral Research 27: 219-236 (1995). HIV-1/184-Ile ("184-Ile") was selected for resistance against the combination of 3TC and TSAO-m^3 T as described in Balzarini et al, Molecular Pharm. 49: 882-890 (1996). HIV-1/184-Val ("184-Val") was selected for resistance against 3TC as described in Balzarini et al, Molecular Pharm. 49: 882-890 (1996).
(§3) CEM cells were suspended at ≈300,000 cells per ml of culture medium and infected with approximately 100 CCID50 (CCID50 being the 50% cell culture infective dose) of HIV-1(IIIB) (designated as "WT" in Table 3) or one of the HIV-1 RT mutant strains described above. Then 100 μl of the infected cell suspensions was added to 200 μl microtiter plate wells containing 100 μl of appropriate serial (5-fold) dilutions of the test compounds. The inhibitiory effect of the test compounds on HIV-1 induced syncytium formation in CEM cells was examined microscopically on day 4 post infection. The 50% effective concentration (EC50) was defined as the test compound concentration that inhibits syncytium formation in the HIV-1-infected cell cultures by 50%.

HIV-1/181-Cys = assay: inhibition of syncytium formation in CEM cells, HIV-1 RT mutant 181-Cys; assay type: cell-based; conditions: Human immunodeficiency virus 1, CCRF-CEM, 96 h, read-out: EC50 181-Cys
Text: as §1, §2, §3

HIV-1/184-Ile = assay: inhibition of syncytium formation in CEM cells, HIV-1 RT mutant 184-Ile; assay type: cell-based; conditions: Human immunodeficiency virus 1, CCRF-CEM, 96 h, read-out: EC50 184-IIe
Text: as §1, §2, §3

HIV-1 (IIIB) = assay: inhibition of HIV-1(IIIB) (WT) induced syncytium formation in CEM cells; assay type: cell-based
Text: as §1, §3

HIV-1/106-Ala = assay: inhibition of syncytium formation in CEM cells, HIV-1 RT mutant 106-Ala; assay type: cell-based; conditions: Human immunodeficiency virus 1, CCRF-CEM, 96 h, read-out: EC50 106-Ala
Text: as §1, §2, §3

HIV-1/184-Val = assay: inhibition of syncytium formation in CEM cells, HIV-1 RT mutant 184-Val; assay type: cell-based; conditions: Human immunodeficiency virus 1, CCRF-CEM, 96 h, read-out: EC50 184-Val
Text: as §1, §2, §3

HIV-1/100-Ile = assay: inhibition of syncytium formation in CEM cells, HIV-1 RT mutant 100-Ile; assay type: cell-based; conditions: Human immunodeficiency virus 1, CCRF-CEM, 96 h, read-out: EC50 100-Ile
Text: as §1, §2, §3

HIV-1/190-Glu = assay: inhibition of syncytium formation in CEM cells, HIV-1 RT mutant 190-Glu; assay type: cell-based; conditions: Human immunodeficiency virus 1, CCRF-CEM, 96 h, read-out: EC50 190-Glu
Text: as §1, §2, §3

103-Ala = assay: inhibition of syncytium formation in CEM cells, HIV-1 RT mutant 103-Ala; assay type: cell-based; conditions: Human immunodeficiency virus 1, CCRF-CEM, 96 h, read-out: EC50 103-Ala
HIV-1/188-Leu = assay: inhibition of syncytium formation in CEM cells, HIV-1 RT mutant 188-Leu; assay type: cell-based; conditions: Human immunodeficiency virus 1, CCRF-CEM, 96 h, read-out: EC50 188-Leu
Text: as §1, §2, §3

HIV-1/188-His = assay: inhibition of syncytium formation in CEM cells, HIV-1 RT mutant 188-His; assay type: cell-based; conditions: Human immunodeficiency virus 1, CCRF-CEM, 96 h, read-out: EC50 188-His
Text: as §1, §2, §3

138-Lys = assay: inhibition of syncytium formation in CEM cells, HIV-1 RT mutant 138-Lys; assay type: cell-based; conditions: Human immunodeficiency virus 1, CCRF-CEM, 96 h, read-out: EC50 138-Lys
Text: as §1, §2, §3

[2] = test system: 181 Tyr→Cys mutation in the RT of HIV-1 strains; conditions: cited from earlier work
[3] = Human immunodeficiency virus 1, IIIB, CCRF-CEM, 96 h, Table 3, HIV-1(IIIB), day 4 post infection, read-out: EC50 WT
[4] = Table 2, day 4 post infection, replicate values, read-out: EC50, Activity Against HIV-1 (IIIB)

Compound	resistance of 100 Leu→Ile mutant strains [1]	EC50 (HIV-1/101-Glu) [µg/mL]	EC50 (HIV-1/181-Cys) [µg/mL]	EC50 (HIV-1/184-Ile) [µg/mL]	EC50 (HIV-1 (IIIB); [3]) [µg/mL]	EC50 (HIV-1 (IIIB); [4])	EC50 (HIV-1/106-Ala) [µg/mL]	EC50 (HIV-1/184-Val) [µg/mL]	EC50 (HIV-1/100-Ile) [µg/mL]	EC50 (HIV-1/190-Glu) [µg/mL]	EC50 (103-Ala) [µg/mL]	EC50 (HIV-1/188-Leu) [µg/mL]	EC50 (HIV-1/188-His) [µg/mL]	EC50 (138-Lys) [µg/mL]	EC50 (HIV-1 (IIIB); Human immunodeficiency virus 1, IIIB, CCRF-CEM, 96 h, Table 2, day 4 post infection, replicate values, read-out: EC50, Activity Against HIV-1 (IIIB)) [nM]	resistance of 181 Tyr→Cys mutant strains [2]
CC(C)=CCN1Cc2cccc3[nH]c(=S)n(c23)CC1C (single isomer, unassigned) [Compound R82150]	resistant															
CC(C)=CCN1Cc2cc(Cl)cc3[nH]c(=S)n(c23)CC1C (single isomer, unassigned) [TIBO R82913]	resistant															
CCCc1ccccc1OCc1cc(NC(=S)c2ccoc2C)ccc1Cl [Compound 43]		1.35	> 0.4	0.13	0.03	42.5 nM and 118 nM	> 2	0.04	1.14	> 2	> 2	> 2	0.65	0.31		
CCc1ccccc1OCc1cc(NC(=S)c2ccoc2C)ccc1Cl [Compound 44]		0.65	> 2	0.04	0.0065	30.7 nM and 18 nM and 95.4 nM	1.1	0.018	0.41	> 2	> 2	0.35	0.25	0.16		
Cc1occc1C(=S)Nc1ccc(Cl)c(COc2c(F)ccc(F)c2F)c1 [Compound 45]		0.04	0.065	0.005	0.0017		0.025	0.0027	0.11	> 2	0.4 (≈ 0.971 µM)	1.5	0.85	0.012		
Cc1occc1C(=S)Nc1ccc(Cl)c(COc2ccccc2C(F)(F)F)c1 [Compound 46]		0.18	0.5	0.018	0.0041	39.3 nM and 54.8 nM and 9.14 nM	0.47	0.0093	0.11	> 2	0.55 (≈ 1.29 µM)	0.19	0.16	0.03		
Cc1occc1C(=S)Nc1ccc(Cl)c(COc2ccc(F)cc2Cl)c1 [Compound 47]		1.47	1	0.12	0.018	516 nM	> 2	0.05	0.65	> 2	> 2	> 2	2	0.64	1030	
Cc1ccnc2c1NC(=O)c1cccnc1N2C1CC1 [nevirapine]																resistant

From patent US6143780A, “N-arylmethylthioanilide compounds useful for the inhibition of the replication of HIV” (Uniroyal Chemical Company, Inc., priority 1999, dated 2000)
